The target in the experiment is T1, Human FXRα Ligand Binding Domain (FXRα LBD) (Homo sapiens, UniProt Q96RI1).
T1 construct: polyhistidine (N); made in house; host or cells: E. coli BL21 (DE3), pRSET-A vector
T1 sequence (Q96RI1 222-472 isoform Q96RI1-2): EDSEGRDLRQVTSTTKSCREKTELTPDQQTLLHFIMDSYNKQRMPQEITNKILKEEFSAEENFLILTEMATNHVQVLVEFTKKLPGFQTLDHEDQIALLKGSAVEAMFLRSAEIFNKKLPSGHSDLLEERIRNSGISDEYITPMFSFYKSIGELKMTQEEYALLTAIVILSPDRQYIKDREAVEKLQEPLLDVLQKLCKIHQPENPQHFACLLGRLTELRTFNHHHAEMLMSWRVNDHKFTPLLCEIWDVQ
Nature of the experiment: FXR Affinity Binding Assay: ligand mediated cofactor peptide (SRC-1 LCD2, 676-700) interaction, time resolved fluorescence. Conditions: FXRα LBD-APC / europium labeled SRC-1 peptide, TRF signal, at least 2 hours at room temperature; read-out: Activity (pEC50) (converted). As for the experimental part: Determination of a ligand mediated cofactor peptide interaction to quantify ligand binding to the nuclear receptor Farnasoid X Receptor (FXR). The method measures the ability of putative ligands to modulate the interaction between the purified bacterial expressed FXRα (LBD) and a synthetic biotinylated peptide based on residues 676-700 of SRC-1(LCD2, 676-700). […] Detection of the associated complex is measured by time resolved fluorescence (TRF). The purified LBD of FXR is labeled with biotin then mixed with stoichiometric amounts of APC labeled streptavidin (Molecular Probes). The biotinylated peptide is then mixed with a ½ stoichiometric amount of europium labeled streptavidin (Wallac Inc). Each is then blocked with a 5 fold excess of biotin and allowed to equilibrate for 15 min. Equimolar amounts of receptor and peptide are mixed together and allowed to equilibrate for at least 30 min prior to the addition to either a variable or constant concentrations of the sample for which the affinity is to be determined. After equilibration, the time-resolved fluorescent signal is quantitated using a fluorescent plate reader. The affinity of the test compound is estimated from a plot of fluorescence versus concentration of test compound added.
Ligands that promote the complex formation induce a concentration-dependent increase in time-resolved fluorescent signal.
Human FXRα Ligand Binding Domain (FXRα LBD) was expressed in E.coli strain BL21 (DE3) as an amino-terminal polyhistidine tagged fusion protein. Expression was under the control of an IPTG inducible T7 promoter. DNA encoding this recombinant protein was subcloned into the pRSET-A expression vector (Invitrogen). The coding sequence of Human FXRα LBD was derived from Genbank accession number U 68233 (amino acids 222 to 472).
Routinely, 30-40 g cell paste (equivalent to 2-3 liters of the fermentation batch) was resuspended in 200-250 mL TBS, pH 7.2 (25mM Tris, 150 mM NaCl). Cells were lysed by passing 3 times through a French Press and cell debris was removed by centrifugation (30 minutes, 20,000 g, 4° C.). The cleared supernatant was filtered through course pre-filters, and TBS, pH 7.2, containing 500 mM imidazole was added to obtain a final imidazole concentration of 50 mM. This lysate was loaded onto a column (6×8 cm) packed with Sepharose [Ni^++ charged]Chelation resin (Pharmacia) and pre-equilibrated with TBS pH 7.21 50 mM imidazole. After washing to baseline absorbance with equilibration buffer, the column was washed with one column volume of TBS pH 7.2 containing 90 mM imidazole. FXRαLBD was eluted directly with 365 mM imidazole. Column fractions were pooled and dialyzed against TBS, pH 7.2, containing 0.5 mM EDTA and 5 mM DTT. The dialyzed protein sample was concentrated using Centri-prep 10 K (Amicon) and subjected to size exclusion, using a column (3×90 cm) packed with Sepharose S-75 resin (Pharmacia) pre-equilibrated with TBS, pH 7.2, containing 0.5 mM EDTA and 5 mM DTT.
Purified FXRα LBD was desalted/buffer exchanged using PD-10 gel filtration columns into PBS [100 mM NaPhosphate, pH 7.2, 150 mM NaCl]. FXRα LBD was diluted to approximately 10 μM in PBS and five-fold molar excess of NHS-LC-Biotin (Pierce) was added in a minimal volume of PBS. This solution was incubated with gentle mixing for 30 minutes at room temperature. The biotinylation modification reaction was stopped by the addition of 2000× molar excess of Tris-HCl, pH 8. The modified FXRα LBD was dialyzed against 4 buffer changes, each of at least 50 volumes, PBS containing 5 mM DTT, 2 mM EDTA and 2% sucrose.
Consider `Cc1cc(OCc2c(-c3c(Cl)cccc3Cl)noc2C(C)C)ccc1N(C)Cc1cccc(C(=O)O)c1` [Example 1, 3-{[(4-{[3-(2,6-Dichlorophenyl)-5-isopropylisoxazol-4-yl]methoxy}-2-methylphenyl)(methyl)amino]methyl}benzoic acid], for which the EC50 was less than 100 nM.
The result for `COC(=O)c1ccc(CN(C)c2ccc(OCc3c(-c4c(Cl)cccc4Cl)noc3C(C)C)cc2C)cc1` [Example 2, Methyl 4-[(4-{[3-(2,6-dichlorophenyl)-5-isopropyl-4-isoxazolyl]methoxy}-2-dimethylanilino)methyl]benzoate] reads less than 100 nM; that for `CC(C)c1onc(-c2c(Cl)cccc2Cl)c1COc1ccc(NCc2cccc(C(=O)O)c2)c(Cl)c1` [Example 3, 3-{[(2-Chloro-4-{[3-(2,6-dichlorophenyl)-5-isopropylisoxazol-4-yl]methoxy}phenyl)amino]methyl}benzoic acid], 102 to 1000 nM; that for `Cc1cc(OCc2c(-c3c(Cl)cccc3Cl)noc2C(C)C)ccc1N(C)Cc1ccc(C(=O)O)o1` [Example 4, 5-[(4-{[3-(2,6-Dichlorophenyl)-5-isopropyl-4-isoxazolyl]methoxy}-2-dimethylanilino)methyl]-2-furoic acid], 102 to 1000 nM.
The result for `Cc1cc(OCc2c(-c3c(Cl)cccc3Cl)noc2C(C)C)ccc1N(C)Cc1ccc(C(=O)O)cc1` [Example 5, 4-[(4-{[3-(2,6-Dichlorophenyl)-5-isopropyl-4-isoxazolyl]methoxy}-2-dimethylanilino)methyl]benzoic acid] reads less than 100 nM.
Take `COC(=O)c1ccoc1CN(C)c1ccc(OCc2c(-c3c(Cl)cccc3Cl)noc2C(C)C)cc1C` [Example 6, Methyl 2-[(4-{[3-(2,6-dichlorophenyl)-5-isopropyl-4-isoxazolyl]methoxy}-2-dimethylanilino)methyl]-3-furoate]: the EC50 was 102 to 1000 nM.
The result for `Cc1cc(OCc2c(-c3c(Cl)cccc3Cl)noc2C(C)C)ccc1N(C)Cc1ccc2nonc2c1` [Example 7, N-(2,1,3-Benzoxadiazol-5-ylmethyl)-4-{[3-(2,6-dichlorophenyl)-5-isopropyl-4-isoxazolyl]methoxy}-N,2-dimethylaniline] reads 102 to 1000 nM; that for `Cc1cc(OCc2c(-c3c(Cl)cccc3Cl)noc2C(C)C)ccc1N(C)Cc1ccc(-c2csnn2)cc1` [Example 8, N-(4-{[3-(2,6-Dichlorophenyl)-5-isopropyl-4-isoxazolyl]methoxy}-2-methylphenyl)-N-methyl-N-[4-(1,2,3-thiadiazol-4-yl)benzyl]amine], 102 to 1000 nM.
To `Cc1cc(OCc2c(-c3c(Cl)cccc3Cl)noc2C(C)C)ccc1N(C)Cc1ccc(C#N)cc1` [Example 9, 4-[(4-{[3-(2,6-Dichlorophenyl)-5-isopropyl-4-isoxazolyl]methoxy}-2-dimethylanilino)methyl]benzonitrile] belongs 102 to 1000 nM.
The result for `Cc1cc(OCc2c(-c3c(Cl)cccc3Cl)noc2C(C)C)ccc1N(C)Cc1occc1C(=O)O` [Example 10, 2-[(4-{[3-(2,6-Dichlorophenyl)-5-isopropyl-4-isoxazolyl]methoxy}-2-dimethylanilino)methyl]-3-furoic acid] reads 102 to 1000 nM; that for `Cc1cc(OCc2c(-c3c(Cl)cccc3Cl)noc2C(C)C)ccc1N(C)Cc1cccc(CO)c1` [Example 11, {3-[(4-{[3-(2,6-Dichlorophenyl)-5-isopropyl-4-isoxazolyl]methoxy}-2-dimethylanilino)methyl]phenyl}methanol], less than 100 nM.
Regarding `Cc1cc(OCc2c(-c3c(Cl)cccc3Cl)noc2C(C)C)ccc1N(C)Cc1ccc(CO)cc1` [Example 12, {4-[(4-{[3-(2,6-Dichlorophenyl)-5-isopropyl-4-isoxazolyl]methoxy}-2-dimethylanilino)methyl]phenyl}methanol], the EC50 was less than 100 nM.
To `CCc1onc(Cc2c(Cl)cccc2Cl)c1COc1ccc(N(C)Cc2cccc(C(=O)O)c2)c(C)c1` [Example 13, 3-[(4-{[3-(2,6-Dichlorobenzyl)-5-ethyl-4-isoxazolyl]methoxy}-2-dimethylanilino)methyl]benzoic acid] belongs 102 to 1000 nM; to `Cc1cc(OCc2c(-c3c(Cl)cc(Cl)cc3Cl)noc2C(C)C)ccc1N(C)Cc1cccc(C(=O)O)c1` [Example 14, 3-{[(4-{[5-Isopropyl-3-(2,4,6-trichlorophenyl)isoxazol-4-yl]methoxy}-2-methylphenyl)-(methyl)amino]methyl}benzoic acid], 102 to 1000 nM; to `Cc1cc(OCc2c(Cc3c(Cl)cccc3Cl)noc2C(C)C)ccc1N(C)Cc1cccc(C(=O)O)c1` [Example 15, 3-[(4-{[3-(2,6-Dichlorobenzyl)-5-isopropyl-4-isoxazolyl]methoxy}-2-dimethylanilino)methyl]benzoic acid], 102 to 1000 nM.
The result for `Cc1cc(OCc2c(Cc3ccccc3Cl)noc2C(C)C)ccc1N(C)Cc1cccc(C(=O)O)c1` [Example 16, 3-{[(4-{[3-(2-Chlorobenzyl)-5-isopropylisoxazol-4-yl]methoxy}-2-methylphenyl)(methyl)-amino]methyl}benzoic acid] reads 102 to 1000 nM; that for `Cc1cc(OCc2c(Cc3c(Cl)cccc3Cl)noc2C2CC2)ccc1N(C)Cc1cccc(C(=O)O)c1` [Example 17, 3-[(4-{[5-Cyclopropyl-3-(2,6-dichlorobenzyl)-4-isoxazolyl]methoxy}-2-dimethylanilino)methyl]benzoic acid], 102 to 1000 nM; that for `Cc1cc(OCc2c(-c3ccccc3OC(F)(F)F)noc2C(C)C)ccc1N(C)Cc1ccc(C(=O)O)o1` [Example 18, 5-{[4-({5-Isopropyl-3-[2-(trifluoromethoxy)phenyl]-4-isoxazolyl}methoxy)-2-dimethylanilino]methyl}-2-furoic acid], less than 100 nM.
Consider `Cc1cc(OCc2c(-c3ccccc3OC(F)(F)F)noc2C(C)C)ccc1N(C)Cc1ccc(C(=O)O)cc1` [Example 19, 4-{[4-({5-Isopropyl-3-[2-(trifluoromethoxy)phenyl]-4-isoxazolyl}methoxy)-2-dimethylanilino]methyl}benzoic acid], for which the EC50 is less than 100 nM.
As for `Cc1cc(OCc2c(-c3ccccc3OC(F)(F)F)noc2C(C)C)ccc1N(C)Cc1cccc(C(=O)O)c1` [Example 20, 3-{[4-({5-Isopropyl-3-[2-(trifluoromethoxy)phenyl]-4-isoxazolyl}methoxy)-2-dimethylanilino]methyl}benzoic acid], the EC50 is less than 100 nM.
With `COC(=O)c1ccc(CN(C)c2ccc(OCc3c(-c4ccccc4OC(F)(F)F)noc3C(C)C)cc2C)o1` [Example 21, Methyl 5-{[4-({5-isopropyl-3-[2-(trifluoromethoxy)phenyl]-4-isoxazolyl}methoxy)-2-dimethylanilino]methyl}-2-furoate], the EC50 is less than 100 nM.
The result for `COC(=O)c1ccc(CN(C)c2ccc(OCc3c(-c4ccccc4OC(F)(F)F)noc3C(C)C)cc2C)cc1` [Example 22, Methyl 4-{[4-({5-isopropyl-3-[2-(trifluoromethoxy)phenyl]-4-isoxazolyl}methoxy)-2-dimethylanilino]methyl}benzoate] reads 102 to 1000 nM; that for `CC(C)c1onc(-c2c(Cl)cccc2Cl)c1COc1ccc(NC(=O)c2ccc(C(=O)O)cc2)c(Cl)c1` [Example 23, 4-{[(2-Chloro-4-{[3-(2,6-dichlorophenyl)-5-isopropylisoxazol-4-yl]methoxy}phenyl)amino]carbonyl}benzoic acid], 102 to 1000 nM.
